Eight compounds from US11981702B2, “Compounds for fluorescence sensing of duplex formation” (San Diego State University Research Foundation, priority 2016, dated 2024) can be followed below.

Common to all, as to type: physicochemical
The nature of data set [1]: UV/Vis absorption and steady state emission spectra. The note with it: for ds λmax,abs / ds λmax,em: double-stranded; for ds λmax,abs / ds λmax,em / λmax,abs (ss) / λmax,em (ss): 1x PBS buffer pH 7.4; for λmax,abs (ss) / λmax,em (ss): single-stranded. The procedure:
(§1) All photophysical experiments were measured in a quartz sub-micro cuvette (10 mm path length) purchased from Starnacell Inc. Solutions were prepared in 1×PBS buffer at pH 7.4. Steady state emission scans were recorded using a PTI QuantaMaster QM-400 and absorbances were measured on a Shimadzu UV-1700 Pharmaspec spectrometer. Quantum yield measurements were performed the comparative method of Williams et. al. and measured in duplicate, at minimum.[7] Quinine sulfate in 0.1M H2SO4 was used as a reference standard for all photophysical measurements. Measurements by using a commercial sample of pyrrolo-dC to obtain a fluorescence quantum yield of 0.046, matching the value of 0.05 as reported by the Tor group were validated.[8] All measurements were taken with an absorbance range of 0.01-0.1. Subsequent dilutions were performed stepwise in order to obtain a minimum of five absorbance and emission spectra for quantum yield determinations. Representative data from these quantum yield measurements is plotted below. Quantum yield determinations were obtained using the following equation: […]
Normalized absorption and emission plots of single-stranded oligonucleotides and double-stranded oligonucleotides in 1×PBS buffer at pH 7.4 were determined accordingly.

For data set [2], the system named is complementary strand. The experiment in a line: Quantum yield of fluorescence emission of double-stranded oligonucleotides after adding complementary strand. The conditions noted are these: for ds Φem: double-stranded oligonucleotide, 1x PBS buffer pH 7.4; for increase in fluorescent quantum yield in duplex DNA as compared with the free nucleoside: matched duplex, depending on neighboring bases. Here is the method: (§2) Quantum yields of fluorescence emission were determined using the comparative method of Williams et. al. (Analyst 1983, 108, 1067) and a fluorescence standard of quinine sulfate in 0.1M H2SO4 (Table 1 and FIG. 2). The single-stranded oligonucleotides have quantum yields of fluorescence emission ranging from Φem=0.01-0.03, all brighter than the free 8-DEA-tC nucleoside by up to a factor of five. Addition of the complementary sequences and duplex formation results in further fluorescence increase in all sequences, up to Φem=0.12 for sequence GC. This quantum yield is 20-fold greater than that of the free 8-DEA-tC nucleoside, the largest such increase reported to date for a fluorescent nucleoside analogue.
as §1
Samples of double-stranded oligonucleotides were prepared using a known concentration of single-stranded oligonucleotide and adding a total of 2.4 equivalents of complementary strand at room temperature. A single-strand absorbance and emission were taken prior to the addition of the first 1.2 equivalents of complementary strand for purposes of single-strand calculation and verification of hybridization. An additional 1.2 equivalent is added after the first double-strand to ensure that complete hybridization was achieved. Thermal annealing procedures had no effect on the measurements as expected, given that these sequences were chosen to have no competing, stable secondary structures.

Data set [3] in a line: Quantum yield of fluorescence emission, comparative method of Williams et al., quinine sulfate standard (free nucleosides, single-stranded oligonucleotides). The note with it: for ss Φem: single-stranded oligonucleotide, 1x PBS buffer pH 7.4. The procedure:
as §2, §1
The determination of quantum yields for single-stranded oligonucleotides containing 8-DEA tC were calculated using the integrated emission intensity measurements of the single strand prior to the addition of the complementary strand, with the following equation. This method was validated by comparison with and confirmed with a SS quantum yield experiment.

Data set [4] relates to complementary strand. The experiment in a line: CD melting temperature of oligonucleotide duplexes (ellipticity at 255 nm). The note with it: for ΔTm: Tm for natural DNA duplex subtracted from Tm for the 8-DEA-tC-containing duplex; for Tm: duplex 5 μM in PBS pH 7.4. Here is the method: UV CD spectra of oligonucleotide duplexes at a concentration of 5 μM in phosphate buffered saline (10 mM sodium phosphate, pH 7.4, […] potassium chloride, 137 mM sodium chloride) were collected at 25° C. in a 1 cm path length cell on an Aviv model 420 spectrophotometer equipped with a Peltier temperature controller. Background-subtracted spectra were smoothed and normalized to concentration using A260 nm as calculated from detector voltage using the following equation and converted to standard units. […] 255 nm was monitored from 15° C. to 75° C. at 1° C. increments. The TM of each duplex was calculated by fitting the raw data to a two-state model in Igor Pro. Melting curves are reported as fraction unfolded.

Data set [5] in a line: Quantum yield of fluorescence emission, comparative method of Williams et al., quinine sulfate standard (free nucleosides, single-stranded oligonucleotides). The conditions noted are these: free nucleoside, 1,4-dioxane.
A short description of data set [6]: UV/Vis absorption and steady state emission spectra. The note with it: free nucleoside, 1,4-dioxane.
A short description of data set [7]: Stern-Volmer analysis of chloride quenching. The note with it: 0 mM to 180 mM NaCl. The procedure: To test the ability of the duplex to attenuate chloride quenching of 8-DEA-tC, a Stern-Volmer analysis was performed using the 8-DEA-tC nucleoside and the TT duplex oligonucleotide (see Examples section below). […] In contrast, chloride has a modest quenching effect on 8-DEA-tC when present in the matched TT duplex.
In order to assess the magnitude that chloride, present in our buffers, would quench the fluorescent cytidine analogues, a Stern-Volmer analysis was performed spanning from 0 mM NaCl to 180 mM NaCl to mimic the environment of the 1XPBS buffer used in the fluorescence measurements of the oligomers.
A solution fluorophore was prepared and a known volumes of a 0.5 M NaCl solution were titrated in and the resulting fluorescence change was measured. The dilution factor was taken into account when calculating integrated fluorescence intensity.

A short description of data set [8]: Viscosity sensitivity of fluorescence in methanol-glycerol mixtures. The note with it: 25° C. An excerpt: It was hypothesized that the C—N bond appending the diethylamino group to tC may provide a molecular rotor effect, enabling non-emissive relaxation coupled to conformational change at the excited state. […] For this reason, it was hypothesized that slowed water dynamics in the major groove of the duplex could cause an increase in the fluorescence of 8-DEA-tC. To test this hypothesis, a comparison of the solvent viscosity sensitivity of fluorescence of the 8-DEA-tC nucleoside with parent tC and 9-(2,2-dicyanovinyl)julolidine (DCVJ, a frequently used reference compound for viscosity effects on fluorescence) using mixtures of glycerol and methanol was performed (see Examples section below).
The responsiveness of (8-DEA)tC, tC, and 9-(2,2-dicyanovinyl)julolidine (DCVJ) to viscosity changes using binary methanol-glycerol mixtures was determined.
Molecular rotors are known to have fluorescent properties that are dependent on the medium viscosity, the fluorescence spectra of parent tC and (8-DEA)tC were examined in methanol-glycerol mixtures ranging from 0 to 100% methanol in glycerol at 25° C. […]
A calibration plot of fluorescence intensity (I) versus viscosity (η) were constructed using the Foster-Hoffman equation ΦF=zη^α, relating the fluorescence quantum yield (ΦF) as a function of viscosity (η) and fluorophore and solvent-specific constants (z, α).

For a further data set, the system named is matching complement. Briefly: Visual discrimination of single nucleotide mismatch under hand-held UV lamp. The note with it: 0.26 mM in 0.5X PBS buffer, versus oligo alone and mismatch duplex. The procedure: Next, the ability of 8-DEA-tC to distinguish single nucleotide by a visible fluorescence response was tested (FIG. 5). 0.26 mM solutions of GC oligo in 0.5X PBS buffer were prepared with the GC oligo alone, a duplex with the matching complement, and a duplex with an 8-DEA-tC mismatch.

As usually defined, the ΔTm is the shift of the melting midpoint relative to a reference. Broadly, the Tm is the temperature at the midpoint of the melting transition.

[8-DEA-tC] = 8-diethylamino tricyclic cytidine analogue (fluorescent), on 2'-deoxyribose

Consider “TA: 5′-CGC-ATX-ATC-G-3′ (SEQ ID NO: 16), X = 8-DEA-tC (DNA CGCATCATCG; DNA, [8-DEA-tC] at 6, backbone not given here)”, for which, in data set [1], the “ds λmax,abs” value worked out at 420 nm, the “ds λmax,em” value was 495 (495) nm, the “λmax,abs (ss)” value came out at 417 nm and the “λmax,em (ss)” value is 495 (495) nm. In the data set on complementary strand [2], the “ds Φem” value is recorded as 0.026. In addition, in data set [3], the “ss Φem” value is given as 0.014. In the data set with complementary strand [4], the ΔTm was -1.6 °C and the Tm is 48.7 °C.
Consider “CA: 5′-CGC-ACX-ATC-G-3′ (SEQ ID NO: 13), X = 8-DEA-tC (DNA CGCACCATCG; DNA, [8-DEA-tC] at 6, backbone not given here)”, for which, in data set [1], the “ds λmax,abs” value is 410 nm, the “ds λmax,em” value worked out at 494 nm, the “λmax,abs (ss)” value amounted to 420 nm and the “λmax,em (ss)” value was found to be 493 nm. Also, the “ds Φem” value with complementary strand [2] is 0.017. Further, the “ss Φem” value in data set [3] is given as 0.014. For the same compound, in the data set on complementary strand [4], the ΔTm result was “+2.1 °C” and the Tm stood at 57.4 °C.
In data set [5], `CCN(CC)c1ccc2c(c1)Nc1nc(=O)n([C@H]3CC(O)[C@@H](CO)O3)cc1S2` (stereo partly drawn) [8-DEA-tC, 8-Diethylamino-tricyclic-2′-deoxy-β-D-ribonucleoside] registered a Φem of 0.06. In [6], the “λmax,abs” value came to 389 nm and the “λmax,em” value is reported as 524 nm. In data set [1] (free nucleoside, 1x PBS buffer), the ε came out at 2700 M⁻¹ cm⁻¹, the “λmax,abs” value turned out to be 395 nm and the “λmax,em” value is recorded as 493 nm. The “effect of chloride on fluorescence” value in [7] is listed as “more fluorescent with increasing chloride concentration”. Also, the “increase in Φem when mispaired with A” value in the data set with complementary strand [2] (8-DEA-tC opposite A in duplex) is “less than 2 fold”. The “Φem opposite an abasic site” value in the data set with complementary strand [2] (8-DEA-tC opposite abasic site (dSpacer) in duplex) is on record as “effectively the same as for the free nucleoside”. In addition, the “increase in fluorescent quantum yield in duplex DNA as compared with the free nucleoside” value in the data set with complementary strand [2] is at most 20 fold. Also, the “sensitivity to quenching by protic solvent relative to parent tC” value in [3] was “approximately twice as sensitive”. In addition, the “Φem in deuterated buffer” value in [3] (deuterated 1X PBS buffer) is reported as 0.012. Further, the Φem in data set [3] (free nucleoside, 1x PBS buffer) is recorded as 0.006. Besides, the “increase of Φem on solvent change” value in [3] (free nucleoside, 1x PBS buffer to 1,4-dioxane) was determined as 10 fold. The “response of fluorescence intensity to viscosity” value in [8] is “positively correlated to viscosity”.
Consider `N#CC(C#N)=Cc1cc2c3c(c1)CCCN3CCC2` [DCVJ, 9-(2,2-dicyanovinyl)julolidine, reference compound], for which the “response of fluorescence intensity to viscosity” value in [8] is recorded as “three-fold greater”.
Take “GG: 5′-CGC-AGX-GTC-G-3′ (SEQ ID NO: 14), X = 8-DEA-tC (DNA CGCAGCGTCG; DNA, [8-DEA-tC] at 6, backbone not given here)”: in [1], the “ds λmax,abs” value is 400 nm, the “ds λmax,em” value amounted to 499 nm, the “λmax,abs (ss)” value is listed as 415 nm and the “λmax,em (ss)” value was found to be 498 nm. The “ds Φem” value with complementary strand [2] turned out to be 0.056. Also, the “ss Φem” value in data set [3] was 0.027. In the data set with complementary strand [4], the shift in melting temperature (ΔTm) was -7.0 °C and the Tm turned out to be 58.2 °C.
In the case of “GA: 5′-CGC-AGX-ATC-G-3′ (SEQ ID NO: 10), X = 8-DEA-tC (DNA CGCAGCATCG; DNA, [8-DEA-tC] at 6, backbone not given here)”, in data set [1], the “ds λmax,abs” value amounted to 422 nm, the “ds λmax,em” value is 499(499) nm, the “λmax,abs (ss)” value was 425 nm and the “λmax,em (ss)” value was 499(499) nm. Further, in the data set with complementary strand [2], the “ds Φem” value was 0.050. Further, in data set [3], the “ss Φem” value amounted to 0.020. Moreover, in the data set with complementary strand [4], the ΔTm was -5.1 °C and the Tm is 50.7 °C.
Regarding “GC: 5′-CGC-AGX-CTC-G-3′ (SEQ ID NO: 12), X = 8-DEA-tC (DNA CGCAGCCTCG; DNA, [8-DEA-tC] at 6, backbone not given here)”, the “visible fluorescence response of matched duplex” value in the data set with matching complement is “large increase in fluorescence”. For the same compound, in [1], the “ds λmax,abs” value came to 348 nm, the “ds λmax,em” value was determined as 500 nm, the “λmax,abs (ss)” value is given as 425 nm and the “λmax,em (ss)” value was found to be 499 nm. In the data set with complementary strand [2], the “ds Φem” value was 0.12 and the “increase in fluorescent quantum yield in duplex DNA as compared with the free nucleoside” value stood at 20 fold. For the same compound, the “ss Φem” value in [3] is recorded as 0.032. Besides, in the data set on complementary strand [4], the ΔTm was -14.5 °C and the melting temperature (Tm) was 49.1 °C.
In the case of “CC: 5′-CGC-ACX-CTC-G-3′ (SEQ ID NO: 15), X = 8-DEA-tC (DNA CGCACCCTCG; DNA, [8-DEA-tC] at 6, backbone not given here)”, in [1], the “ds λmax,abs” value is 413 nm, the “ds λmax,em” value is 496 (496) nm, the “λmax,abs (ss)” value came out at 421 nm and the “λmax,em (ss)” value is 496 (496) nm. Further, in the data set with complementary strand [2], the “ds Φem” value came to 0.024. For the same compound, the “ss Φem” value in data set [3] is on record as 0.013. Moreover, in the data set with complementary strand [4], the ΔTm entry is “+6.7 °C” and the Tm is 60.2 °C.
